{"source": "patent EP1951308B1", "about": "“COMBINATION PREPARATIONS CONTAINING PHYSIOLOGICAL CELL MEMBRANE CONSTITUENTS INCLUDING PHOSPHATIDYLSERINE, CHOLINE AND A PYRIMIDINE NUCLEOSIDE/NUCLEOTIDE” (Susilo, Gisela, priority 2005, dated 2007)", "tested_on": "elektrische Hirnaktivität", "assay": "EEG recording (CATEEM system, 17 electrodes, 10/20 system) of electrical brain activity after a single oral intake, compared with placebo; studies 1, 3, 4 and 5", "type": "in vivo, gesunden Testpersonen", "conditions": "for Hirnaktivität / Hirnleistung / Gehirnfunktion (Stimulierung): conclusion in words drawn from the EEG results; for delta Aktivität in Bezug auf die Referenz (Placebo) / Veränderung der delta Aktivität im Vergleich zu Placebo: oral, Augen offen; for Veränderung der delta Aktivität im Vergleich zu Placebo: during 4 Stunden after intake, studies 3-5; for neuro-regenerierende Wirkung: summary of Studienbeispiele 1 - 5, EEG, single oral dose; for delta Power (delta Aktivität): study 1, recording condition not stated, 1-4 h after oral intake", "note": "Entries after “also recorded” stand apart in the source; their conditions may differ."}
{"compound": "C[N+](C)(C)CCOP(=O)([O-])OP(=O)(O)OC[C@H]1O[C@@H](n2ccc(N)nc2=O)[C@H](O)[C@@H]1O", "note": "[CDP-Cholin, Cytidindiphosphocholin]", "values": [{"measurement": "Hirnaktivität / Hirnleistung / Gehirnfunktion (Stimulierung)", "result": "nicht bzw. nur leicht jedoch nicht signifikant steigern"}, {"measurement": "delta Aktivität in Bezug auf die Referenz (Placebo)", "setting": "1 h after intake", "result": 98, "unit": "%"}, {"measurement": "delta Aktivität in Bezug auf die Referenz (Placebo)", "setting": "2h after intake", "result": 102, "unit": "%"}, {"measurement": "delta Aktivität in Bezug auf die Referenz (Placebo)", "setting": "4h after intake", "result": 96, "unit": "%"}, {"measurement": "Veränderung der delta Aktivität im Vergleich zu Placebo", "setting": "result in words", "result": "geringfügige aber im Vergleich zum Placebo-Arm nicht signifikante Veränderung"}, {"measurement": "neuro-regenerierende Wirkung", "result": "-"}]}
{"compound": "Phosphatidylserin", "values": [{"measurement": "Hirnaktivität / Hirnleistung / Gehirnfunktion (Stimulierung)", "result": "nicht bzw. nur leicht jedoch nicht signifikant steigern; also recorded: nicht beobachtet"}, {"measurement": "delta Aktivität in Bezug auf die Referenz (Placebo)", "setting": "1 h after intake", "result": 96, "unit": "%"}, {"measurement": "delta Aktivität in Bezug auf die Referenz (Placebo)", "setting": "2h after intake", "result": 94, "unit": "%"}, {"measurement": "delta Aktivität in Bezug auf die Referenz (Placebo)", "setting": "4h after intake", "result": 94, "unit": "%"}, {"measurement": "Veränderung der delta Aktivität im Vergleich zu Placebo", "setting": "result in words", "result": "keinen signifikanten Veränderungen"}, {"measurement": "Beta-Aktivitäten (beta Power)", "setting": "result in words, study 1", "result": "nur bei einem Messzeitpunkt nämlich 3 Stunden nach Verabreichung des Wirkstoffs eine statistisch signifikante Abnahme"}, {"measurement": "alpha Power (alpha Aktivität)", "setting": "result in words, study 1", "result": "leichter aber nicht signifikanter Zunahme"}, {"measurement": "delta Aktivitäten", "setting": "result in words, study 1, Augen offen", "result": "während der zweiten und dritten Stunde vermindert, aber keine statistische Signifikanz"}, {"measurement": "delta Power (delta Aktivität)", "setting": "result in words", "result": "Abnahme des delta Power"}, {"measurement": "delta Power (delta Aktivität)", "setting": "result in words, listed as INDO I", "result": "Abnahme der elektrischen delta Aktivität (delta Power), die jedoch nur 4 Stunden nach Applikation statistisch signifikant war"}, {"measurement": "neuro-regenerierende Wirkung", "result": "-"}]}
